Experimental findings from patent US20240400555A1 (Initial Therapeutics, Inc., priority 2023, published 2024) are described below.

The test system of the first experiment is MV-4-11 cells. Nature of the experiment: Cell Viability Assay in MV-4-11 Cells. The settings on record: Homo sapiens, MV4-11, 72 h. In kind it is cell-based. A digest of the protocol: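 MV-4-11 cells at 7,000/well in IMDM with 10% FBS, exposed to compound for 72 h. Viability by CellTiter-Glo luminescence, normalized to DMSO as 100%, fitted with a four-parameter curve.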
Molecule `[2H]C([2H])([2H])c1nnc(-c2ccc(C(=O)N(c3nccc4scc(C)c34)[C@@H]3CCCNC3)c(F)c2)s1` [Example 780, 2-fluoro-N-(3-methylthieno[3,2-c]pyridin-4-yl)-N-[(3R)-3-piperidyl]-4-[5-(trideuteriomethyl)-1,3,4-thiadiazol-2-yl] benzamide] showed an IC50 of 120 nM.

The experiment is the same for the next values; noted with them: Homo sapiens, MV4-11, 72 h, MV-4-11 cells, 72 h, Cell-Titer Glo; read-out: IC50.
In the case of `CCc1nc(Nc2ccc(C(=O)N(c3nccc4cccc(C)c34)[C@@H]3CCCNC3)c(F)c2)ncc1F` [Example 753, (R)-4-((4-ethyl-5-fluoropyrimidin-2-yl)amino)-2-fluoro-N-(8-methylisoquinolin-1-yl)-N-(piperidin-3-yl)benzamide], the IC50 was 170 nM. The same measure, in the same setting: the value for `Cc1nc(Nc2ccc(C(=O)N(c3nccc4cccc(C)c34)[C@@H]3CCCNC3)c(F)c2)ncc1F` [Example 754, (R)-2-fluoro-4-((5-fluoro-4-methylpyrimidin-2-yl)amino)-N-(8-methylisoquinolin-1-yl)-N-(piperidin-3-yl)benzamide] was 340 nM.

Regarding `Cc1nnc(-c2ccc(C(=O)N(c3nccc4cc(Cl)cc(C)c34)[C@@H]3CCCNC3)cc2)s1` [Example 755, (R)—N-(6-chloro-8-methylisoquinolin-1-yl)-4-(5-methyl-1,3,4-thiadiazol-2-yl)-N-(piperidin-3-yl)benzamide], the IC50 amounted to 87 nM.

`Cc1cc2c(N(C(=O)c3ccc(-n4cnc5ccccc54)cc3F)[C@@H]3CCCNC3)nccc2s1` [Example 756, (R)-4-(1H-benzo[d]imidazol-1-yl)-2-fluoro-N-(2-methylthieno[3,2-c]pyridin-4-yl)-N-(piperidin-3-yl)benzamide]: the IC50 is > 6300 nM.

Turning to `Cc1nnc(-c2ccc(C(=O)N(c3nccc4scc(C)c34)[C@@H]3CCCNC3)c(C)c2)s1` [Example 757, 2-methyl-4-(5-methyl-1,3,4-thiadiazol-2-yl)-N-(3-methylthieno[3,2-c]pyridin-4-yl)-N-[(3R)-3-piperidyl]benzamide], the IC50 turned out to be 530 nM. Turning to `Cc1csc2ccnc(N(C(=O)c3ccc(-c4cn(C)nn4)cc3Cl)[C@@H]3CCCNC3)c12` [Example 758, (R)-2-chloro-4-(1-methyl-1H-1,2,3-triazol-4-yl)-N-(3-methylthieno[3,2-c]pyridin-4-yl)-N-(piperidin-3-yl)benzamide], the IC50 stood at 170 nM. For `Cn1cc(-c2ccc(C(=O)N(c3nccc4c(F)cccc34)[C@@H]3CCCNC3)c(F)c2)nn1` [Example 759, (R)-2-fluoro-N-(5-fluoroisoquinolin-1-yl)-4-(1-methyl-1H-1,2,3-triazol-4-yl)-N-(piperidin-3-yl)benzamide], the IC50 turned out to be 520 nM. Still for that read-out and setting: the result for `Cc1nnc(-c2ccc(C(=O)N(c3nccc4c(F)ccc(C)c34)[C@@H]3CCCNC3)c(F)c2)s1` [Example 760, (R)-2-fluoro-N-(5-fluoro-8-methylisoquinolin-1-yl)-4-(5-methyl-1,3,4-thiadiazol-2-yl)-N-(piperidin-3-yl)benzamide] reads 160 nM. Turning to `Cc1ccc(F)c2ccnc(N(C(=O)c3ccc(-c4cn(C)nn4)cc3F)[C@@H]3CCCNC3)c12` [Example 761, (R)-2-fluoro-N-(5-fluoro-8-methylisoquinolin-1-yl)-4-(1-methyl-1H-1,2,3-triazol-4-yl)-N-(piperidin-3-yl)benzamide], the IC50 amounted to 69 nM.

Take `COc1ccc2c(N(C(=O)c3ccc(-c4nnc(C)s4)cc3F)[C@@H]3CCCNC3)nccc2c1` [Example 762, (R)-2-fluoro-N-(6-methoxyisoquinolin-1-yl)-4-(5-methyl-1,3,4-thiadiazol-2-yl)-N-(piperidin-3-yl)benzamide]: the IC50 came to 620 nM. `Cc1cc(Cl)cc2ccnc(N(C(=O)c3ccc(-c4nnn(C)c4C)cc3F)[C@@H]3CCCNC3)c12` [Example 763, (R)—N-(6-chloro-8-methylisoquinolin-1-yl)-4-(1,5-dimethyl-1H-1,2,3-triazol-4-yl)-2-fluoro-N-(piperidin-3-yl)benzamide]: the IC50 is 34 nM. On to `Cc1nnc(-c2ccc(C(=O)N(c3nccc4cc(Cl)cc(C)c34)[C@@H]3CCCNC3)c(Cl)c2)o1` [Example 764, (R)-2-chloro-N-(6-chloro-8-methylisoquinolin-1-yl)-4-(5-methyl-1,3,4-oxadiazol-2-yl)-N-(piperidin-3-yl)benzamide], for which the IC50 is > 7500 nM. For `Cc1nnc(-c2ccc(C(=O)N(c3nccc4cc(Cl)cc(C)c34)[C@@H]3CCCNC3)c(F)c2)o1` [Example 765, (R)—N-(6-chloro-8-methylisoquinolin-1-yl)-2-fluoro-4-(5-methyl-1,3,4-oxadiazol-2-yl)-N-(piperidin-3-yl)benzamide], the IC50 amounted to 86 nM.

Take `[2H]C([2H])([2H])c1nnc(-c2ccc(C(=O)N(c3nccc4cc(Cl)cc(C)c34)[C@@H]3CCCNC3)c(F)c2)s1` [Example 766, (R)—N-(6-chloro-8-methylisoquinolin-1-yl)-2-fluoro-4-(5-(methyl-d3)-1,3,4-thiadiazol-2-yl)-N-(piperidin-3-yl)benzamide]: the IC50 is 100 nM.

With `[2H]C([2H])([2H])c1nnc(-c2ccc(C(=O)N(c3nccc4cc(F)cc(C)c34)[C@@H]3CCCNC3)c(F)c2)s1` [Example 767, 2-fluoro-N-(6-fluoro-8-methyl-1-isoquinolyl)-N-[(3R)-3-piperidyl]-4-[5-(trideuteriomethyl)-1,3,4-thiadiazol-2-yl]benzamide], the IC50 was determined as 130 nM. Consider `Cc1csc2ccnc(N(C(=O)c3ccc(-c4cc(Cl)cnn4)cc3F)[C@@H]3CCCNC3)c12` [Example 768, (R)-4-(5-chloropyridazin-3-yl)-2-fluoro-N-(3-methylthieno[3,2-c]pyridin-4-yl)-N-(piperidin-3-yl)benzamide], for which the IC50 was found to be 92 nM. In the case of `Cc1cc(Cl)cc2ccnc(N(C(=O)c3ccc(-c4cc(Cl)cnn4)cn3)[C@@H]3CCCNC3)c12` [Example 769, (R)—N-(6-chloro-8-methylisoquinolin-1-yl)-5-(5-chloropyridazin-3-yl)-N-(piperidin-3-yl)picolinamide], the IC50 amounted to 120 nM. As to `Cc1cc(F)cc2ccnc(N(C(=O)c3ccc(-c4nnn(C)c4C)cc3)[C@@H]3CCCNC3)c12` [Example 770, (R)-4-(1,5-dimethyl-1H-1,2,3-triazol-4-yl)-N-(6-fluoro-8-methylisoquinolin-1-yl)-N-(piperidin-3-yl)benzamide], the IC50 amounted to 430 nM. For the molecule `Cc1cc(Cl)cc2ccnc(N(C(=O)c3ccc(-c4nnn(C)c4C)cc3)[C@@H]3CCCNC3)c12` [Example 771, (R)—N-(6-chloro-8-methylisoquinolin-1-yl)-4-(1,5-dimethyl-1H-1,2,3-triazol-4-yl)-N-(piperidin-3-yl)benzamide], the IC50 is 140 nM. As to `Cc1nnc(-c2ccc(C(=O)N(c3nccc4cc(Cl)cc(C)c34)[C@@H]3CCCNC3)cc2)o1` [Example 772, (R)—N-(6-chloro-8-methylisoquinolin-1-yl)-4-(5-methyl-1,3,4-oxadiazol-2-yl)-N-(piperidin-3-yl)benzamide], the IC50 is 130 nM. As to `Cc1noc(-c2ccc(C(=O)N(c3nccc4cc(Cl)cc(C)c34)[C@@H]3CCCNC3)cc2)n1` [Example 773, (R)—N-(6-chloro-8-methylisoquinolin-1-yl)-4-(3-methyl-1,2,4-oxadiazol-5-yl)-N-(piperidin-3-yl)benzamide], the IC50 amounted to 190 nM. Turning to `Cc1nsc(-c2ccc(C(=O)N(c3nccc4cc(F)cc(C)c34)[C@@H]3CCCNC3)cc2)n1` [Example 774, (R)—N-(6-fluoro-8-methylisoquinolin-1-yl)-4-(3-methyl-1,2,4-thiadiazol-5-yl)-N-(piperidin-3-yl)benzamide], the IC50 turned out to be 1500 nM. In the case of `Cc1noc(-c2ccc(C(=O)N(c3nccc4cc(F)cc(C)c34)[C@@H]3CCCNC3)cc2)n1` [Example 775, (R)—N-(6-fluoro-8-methylisoquinolin-1-yl)-4-(3-methyl-1,2,4-oxadiazol-5-yl)-N-(piperidin-3-yl)benzamide], the IC50 is 99 nM. On to `Cc1nnc(-c2ccc(C(=O)N(c3nccc4cc(F)cc(C)c34)[C@@H]3CCCNC3)c(F)c2)o1` [Example 776, (R)-2-fluoro-N-(6-fluoro-8-methylisoquinolin-1-yl)-4-(5-methyl-1,3,4-oxadiazol-2-yl)-N-(piperidin-3-yl)benzamide], for which the IC50 was determined as 150 nM. For the molecule `Cc1noc(-c2ccc(C(=O)N(c3nccc4scc(C)c34)[C@@H]3CCCNC3)c(C)c2)n1` [Example 777, (R)-2-methyl-4-(3-methyl-1,2,4-oxadiazol-5-yl)-N-(3-methylthieno[3,2-c]pyridin-4-yl)-N-(piperidin-3-yl)benzamide], the IC50 was 720 nM. Regarding `Cc1noc(-c2ccc(C(=O)N(c3nccc4scc(C)c34)[C@@H]3CCCNC3)c(F)c2)n1` [Example 778, (R)-2-fluoro-4-(3-methyl-1,2,4-oxadiazol-5-yl)-N-(3-methylthieno[3,2-c]pyridin-4-yl)-N-(piperidin-3-yl)benzamide], the IC50 came out at 280 nM. With `Cc1nsc(-c2ccc(C(=O)N(c3nccc4scc(C)c34)[C@@H]3CCCNC3)c(F)c2)n1` [Example 779, (R)-2-fluoro-4-(3-methyl-1,2,4-thiadiazol-5-yl)-N-(3-methylthieno[3,2-c]pyridin-4-yl)-N-(piperidin-3-yl)benzamide], the IC50 is 1300 nM. As for `Cc1nnc(-c2ccc(C(=O)N(c3nccc4scc(C)c34)[C@@H]3CCCNC3)c(F)c2)s1` [Example 781, (R)-2-fluoro-4-(5-methyl-1,3,4-thiadiazol-2-yl)-N-(3-methylthieno[3,2-c]pyridin-4-yl)-N-(piperidin-3-yl)benzamide], the IC50 came to 130 nM. For the molecule `Cc1csc2ccnc(N(C(=O)c3ccc(-c4nnn(C)c4C)cc3F)[C@@H]3CCCNC3)c12` [Example 782, (R)-4-(1,5-dimethyl-1H-1,2,3-triazol-4-yl)-2-fluoro-N-(3-methylthieno[3,2-c]pyridin-4-yl)-N-(piperidin-3-yl)benzamide], the IC50 is 120 nM.

With `Cc1nnc(-c2ccc(C(=O)N(c3nccc4cccc(C)c34)[C@@H]3CCCNC3)nc2)s1` [Example 783, (R)-5-(5-methyl-1,3,4-thiadiazol-2-yl)-N-(8-methylisoquinolin-1-yl)-N-(piperidin-3-yl)picolinamide], the 50% inhibitory concentration (IC50) was determined as 180 nM.
